What all share (assay type): in vivo
One test relates to Idioscopus clypealis. Nature of the test: Example 14: mango tree against Idioscopus clypealis. The conditions noted are these: nymphs on infructescences. How it is done:
A mango tree which is approximately 14 years old is treated, in three replications, against Idioscopus clypealis. The application is carried out with a high-pressure sprayer. Here, the active substance Example (I-4) (240 SC), in a tank mix with 0.2% a.s. rapeseed oil methyl ester (500 EW) and the commercial standards Imidacloprid (100 SL) and Pymetrozine (WP 25), is tested at the specified application rates. The amount of spray mixture is 10 l/tree. Five treatments are carried out at intervals of 7, 14, 21 and 28 days.
The test is evaluated in each case 7 days after treatments 3 to 5 by scoring the destruction rate of the nymphs on the infructescences.

For a further test, the system named is Scirtothrips dorsalis. Nature of the test: Example 10: tea plants against Scirtothrips dorsalis. The conditions noted are these: 7 d after treatment, nymphs, Ethiprole (SC10) 0.005, (I-4) (100 OD) 0.01, Imidacloprid (50 WG) 0.005 % a.s. How it is done:
Plots approx. 5 m^2 in size which are planted with tea plants cv. “Yabukita” which are approximately 18 years old are treated, in three replications, against Scirtothrips dorsalis. Here, the active substance Example (I-4) (100 OD) is tested, at the specified application rates, against the commercial standards Ethiprole (SC10 flowable) and Imidacloprid (50 WG). The application is carried out with a sprayer which is operated with pressurized air. The water application rate is 4500 l/ha. The test is evaluated 7 days after the treatment by scoring the destruction rate of the nymphs and the plants.

Test [1] deals with Frankliniella occidentalis. Put plainly: Example 5: aubergines against Frankliniella occidentalis. The conditions noted are these: mixed populations on leaves. How it is done:
Plots 6 m^2 in size which are planted with aubergines cv. “Soraya” are treated, in three replications, against Frankliniella occidentalis. The application is effected with a motor-operated knapsack sprayer. Here, the active substances Example (I-4) (240 SC) and Example (I-9) (240 SC), in a tank mix together with 0.1% a.s. rapeseed oil methyl ester (500 EW) and the commercial standard Spinosad (480 SC), are tested at the specified application rates. The water application rate is 1500 l/ha.
The test is evaluated 25, 32 and 39 days after the treatment by scoring the destruction rate of the mixed populations on the leaves.

The test system of the next test is Liriomyza sp. Put plainly: Example 18: beans against Liriomyza sp. Particulars: for Efficacy (% Abbott) 2 d: 2 d after first treatment, 10 leaves, Cyromazine (WP 75) 130, (I-4) (150 OD) 100, Abamectin (EC 018) 14.4 g a.s./ha, three applications, 7-day intervals; for Efficacy (% Abbott) 7 d: 7 d after first treatment; for Efficacy (% Abbott) 7 d / Efficacy (% Abbott) 12 d / Efficacy (% Abbott) 18 d / Efficacy (% Abbott) 20 d / Efficacy (% Abbott) 25 d: Cyromazine 130, (I-4) 100, Abamectin 14.4 g a.s./ha; for Efficacy (% Abbott) 12 d: 12 d after first treatment; for Efficacy (% Abbott) 18 d: 18 d after first treatment; for Efficacy (% Abbott) 20 d: 20 d after first treatment; for Efficacy (% Abbott) 25 d: 25 d after first treatment. The procedure: Plots approx. 10 m^2 in size which are planted with beans cv. “Lago Azul” are treated, in three replications, against Liriomyza sp. Here, the active substance Example (I-4) (150 OD) and the commercial standards Cyromazine (WP 75) and Abamectin (EC 018) are applied at the specified application rates, using a knapsack sprayer which is operated with pressurized gas. The water application rate is 400 and 500 l/ha., respectively. Three applications are carried out at intervals of in each case 7 days.
The destruction rate in percent is determined on in each case 10 leaves. 2, 7, 12, 18, 20 and 25 days after the first treatment, the following results are obtained: […]

Test [2] deals with Frankliniella occidentalis. Put plainly: Example 2: bell peppers against Frankliniella occidentalis. Particulars: Acrinathrin 60, (I-9) 54, (I-4) 60 g a.s./ha, (I-9)/(I-4) 240 SC + 0.1% rapeseed oil methyl ester. How it is done: Plots 10 m^2 in size which are planted with bell peppers cv. “Zingaro” are treated, in three replications, against Frankliniella occidentalis. The application is effected with a knapsack sprayer which is operated with pressurized air. Here, the active substances Example (I-9) (240 SC) and Example (I-4) (240 SC), in the form of a tank mix together with 0.1% a.s. rapeseed oil methyl ester (500 EW) and the commercial standard acrinathrin (075 EW), are applied at the specified application rates. Two applications are carried out at an interval of 24 days, with a water application rate of 1000 l/ha.
The test is evaluated 17 and 21 days after treatment 1 and 4 days after treatment 2 by scoring the destruction of the animals (nymphs) on the flowers.

The subject of a further test is Ceutorhynchus napi. Put plainly: Example 26-A: oilseed rape against Ceutorhynchus napi. The conditions noted are these: 55 d after treatment, larvae, Deltamethrin (25 EC) 5, (I-4) (+ 0.2% rapeseed oil methyl ester) 72, Thiacloprid (OD 240) 72, Lambda-cyhalothrin 5 g a.s./ha. How it is done: Plots approx. 25 m^2 in size which are planted with oilseed rape cv. “Artus” are treated, in four replications, against Ceutorhynchus napi. The application is carried out with a motor-operated knapsack sprayer. Here, the active substance Example (I-4), in a tank mix with 0.2% a.s. rapeseed oil methyl ester (500 EW) and the commercial standards Deltamethrin (25 EC), lambda-cyhalothrin (S100) and Thiacloprid (OD 240), is tested at the specified application rates. The water application rate is 250 l/ha.
The test is evaluated 55 days after the treatment by scoring the destruction rate of the larvae on the plants.

The next test deals with Empoasca biguttula. Put plainly: Example 12: cotton against Empoasca biguttula. How it is done: Plots 10 m^2 in size which are planted with cotton are treated, in three replications, against Empoasca biguttula. The application is carried out with a knapsack sprayer operated with pressurized air. Here, the active substance Example (I-4) (240 SC), in a tank mix with 0.2% a.s. rapeseed oil methyl ester (500 EW), is tested against the commercial standards Imidacloprid (SL 100) and Buprofezin (WP50) at the specified application rates. Two applications are carried out at an interval of 7 days. The water application rate is 750 l/ha.
The test is evaluated 3, 7, 14 and 21 days after the second treatment by counting the live animals. Thereafter, the efficacy is calculated in percent, using the formula of Henderson and Tilton.

[3] abbreviates: Imidacloprid 0.00025 %, (I-4) 0.0016 %, Pymetrozine 0.002 %.

For `CC1=NNC(=O)N(/N=C/c2cccnc2)C1` [Pymetrozine], in the test with Idioscopus clypealis (setting [3]), the “Efficacy (% Abbott) 7 days after treatment 4” value was 98.6 % Abbott and the “Efficacy (% Abbott) 7 days after treatment 5” value was found to be 94.8 % Abbott. The “Efficacy (% Abbott) 7 days after treatment 3” value in the test on Idioscopus clypealis (Imidacloprid (100 SL) 0.00025 %, (I-4) (240 SC + 0.2% rapeseed oil methyl ester) 0.0016 %, Pymetrozine (WP 25) 0.002 %) is reported as 70.9 % Abbott.
Turning to `CC[S+]([O-])c1c(C#N)nn(-c2c(Cl)cc(C(F)(F)F)cc2Cl)c1N` (stereo not drawn) [Ethiprole], the “Efficacy (% Abbott) 7 d” value in the test on Scirtothrips dorsalis came out at 100 % Abbott.
In the case of Spinosad, the “Efficacy (% Abbott) 25 d” value in test [1] (25 d after treatment, Spinosad (480 SC) 0.012, (I-9) 0.0054, (I-4) 0.012 % a.s., 240 SC + 0.1% rapeseed oil methyl ester) is given as 94.7 % Abbott. In addition, in test [1] (32 d after treatment, Spinosad 0.012, (I-9) 0.0054, (I-4) 0.012 % a.s.), the “Efficacy (% Abbott) 32 d” value was 89.3 % Abbott. The “Efficacy (% Abbott) 39 d” value in test [1] (39 d after treatment, Spinosad 0.012, (I-9) 0.0054, (I-4) 0.012 % a.s.) stood at 95.3 % Abbott.
Take `Nc1nc(N)nc(NC2CC2)n1` [Cyromazine]: in the test on Liriomyza sp., the “Efficacy (% Abbott) 2 d” value came to 44 % Abbott, the “Efficacy (% Abbott) 7 d” value amounted to 61 % Abbott, the “Efficacy (% Abbott) 12 d” value was 42 % Abbott and the “Efficacy (% Abbott) 18 d” value is listed as 54 % Abbott. Moreover, in the test with Liriomyza sp., the “Efficacy (% Abbott) 20 d” value was 32 % Abbott and the “Efficacy (% Abbott) 25 d” value stood at 0 % Abbott.
For the compound Abamectin, in the test on Liriomyza sp., the “Efficacy (% Abbott) 2 d” value is given as 36 % Abbott, the “Efficacy (% Abbott) 7 d” value is reported as 80 % Abbott, the “Efficacy (% Abbott) 12 d” value is 52 % Abbott and the “Efficacy (% Abbott) 18 d” value stood at 70 % Abbott. In addition, in the test on Liriomyza sp., the “Efficacy (% Abbott) 20 d” value was 43 % Abbott and the “Efficacy (% Abbott) 25 d” value was determined as 60 % Abbott.
With `CC1(C)[C@H](C(=O)O[C@H](C#N)c2cccc(Oc3ccccc3)c2)[C@@H]1/C=C\C(=O)OC(C(F)(F)F)C(F)(F)F` [Acrinathrin, acrinathrin], the “Efficacy (% Abbott) 4 d (2)” value in test [2] (4 d after treatment 2, nymphs on flowers) is given as 87 % Abbott. Besides, the “Efficacy (% Abbott) 17 d (1)” value in test [2] (17 d after treatment 1, nymphs on flowers) turned out to be 98 % Abbott. In addition, in test [2] (21 d after treatment 1, nymphs on flowers), the “Efficacy (% Abbott) 21 d (1)” value is 91 % Abbott.
In the case of `CC1(C)[C@H](C(=O)O[C@H](C#N)c2cccc(Oc3ccccc3)c2)[C@@H]1/C=C(\Cl)C(F)(F)F` (racemic) [Lambda-cyhalothrin, lambda-cyhalothrin], the “Efficacy (% Abbott) 55 d” value in the test on Ceutorhynchus napi is reported as 89.5 % Abbott.
Consider `CC(C)N1C(=O)N(c2ccccc2)CS/C1=N\C(C)(C)C` [Buprofezin], for which, in the test on Empoasca biguttula (3 d after second treatment, Henderson and Tilton, Imidacloprid (SL 100) 30, (I-4) (240 SC + 0.2% rapeseed oil methyl ester) 24, Buprofezin (WP50) 50 g a.s./ha), the “Efficacy (% H + T) 3 d” value was 96.5 % H + T. Moreover, the “Efficacy (% H + T) 7 d” value in the test on Empoasca biguttula (7 d after second treatment, Imidacloprid 30, (I-4) 24, Buprofezin 50 g a.s./ha) stood at 94.7 % H + T. Also, the “Efficacy (% H + T) 14 d” value with Empoasca biguttula (14 d after second treatment, Imidacloprid 30, (I-4) 24, Buprofezin 50 g a.s./ha) was 90.1 % H + T. Also, the “Efficacy (% H + T) 21 d” value with Empoasca biguttula (21 d after second treatment, Imidacloprid 30, (I-4) 24, Buprofezin 50 g a.s./ha) is 67.1 % H + T.

The values are drawn from patent publication US20090298903A1, “USE OF TETRAMIC ACID DERIVATIVES FOR INSECT CONTROL” (priority 2006, published 2009).
